This is an account of results in PMC5062114, “Dual-targeting anti-angiogenic cyclic peptides as potential drug leads for cancer therapy” (Scientific Reports, 2016).

Structures are written as SMILES. Bridge positions count the residues as written; N and C are the ends. Square brackets hold non-standard residues; d marks the D form. Peptide text beside a SMILES is read from it.

Holding throughout (test): cells
In one assay the test system is HT-29. As to conditions: read-out: IC50 ± S.D.; 48 hours, HT-29; cell proliferation inhibition, MTT, 48-h incubation, 1.5 × 10^3 cells/well, triplicate, mean ± SD. Here is the method: (§1) HUVECs (human umbilical vein endothelial cells) were cultured in EGM™-2 BulletKit™ supplemented with SingleQuots™ (supplements: growth factors, cytokines, antibiotics; Lonza) and 10% FBS (catalog no. FFBS-500; Scientifix). Both HT-29 and MCF-7 cells were cultured in 10% FBS/DMEM (Dulbecco’s Modified Eagle Medium) with 1% penicillin–streptomycin (5000 U/mL; Life Technologies), whereas PC3 cells (prostate cancer cells) were cultured in 10% FBS/RPMI (Roswell Park Memorial Institute) 1640 with 1% penicillin–streptomycin (5000 U/mL; Life Technologies). All cells were maintained at 37 °C in 5% CO2.
(§2) Cell cytotoxicity and proliferation assays were performed using similar methods to those described by Chan et al.[45]. All cells were maintained using the media conditions described above, and passages two to ten were used for all cell lines. For all cell lines, 5.0 × 10^3 cells/well (100 μL) and 1.5 × 10^3 cells/well (100 μL) were used for cell cytotoxicity and cell proliferation assays, respectively. All peptides (10 μL, at final concentrations ranging from 0.05–100 μM) and drugs, which included cilengitide, octreotide and sunitinib (at final concentrations ranging from 0.00001–100 μM), were used in both assays. Triton X-100 (0.1% (v/v); 10 μL) was used as a positive control. Cells were treated with fresh media the day after plating, before the addition of peptides, followed by a subsequent 2-h and 48-h incubation for cell cytotoxicity and cell proliferation, respectively. After different incubation periods, 3-(4, 5-dimethylthiazolyl-2)-2,5-diphenyltetrazolium bromide (MTT) (10 μL; 5 mg/mL in PBS) was added, and cells were incubated for a further 4 h. The supernatant was then removed and 100 μL DMSO added to solubilize formazan salts. Experiments were performed in triplicate. Cell numbers were recorded at 600 nm. All data represent average mean ± SD.

The next assay has as its system HUVEC. As to conditions: read-out: IC50 ± S.D.; 48 hours, HUVEC; cell proliferation inhibition, MTT, 48-h incubation, 1.5 × 10^3 cells/well, triplicate, mean ± SD. As to the method:
as §1, §2

The next assay has as its system MCF-7. As to conditions: read-out: IC50 ± S.D.; 48 hours, MCF-7; cell proliferation inhibition, MTT, 48-h incubation, 1.5 × 10^3 cells/well, triplicate, mean ± SD. As to the method:
as §1, §2

Another assay concerns PC3. As to conditions: read-out: IC50 ± S.D.; 48 hours, PC3; cell proliferation inhibition, MTT, 48-h incubation, 1.5 × 10^3 cells/well, triplicate, mean ± SD. As to the method: as §1, §2

A word on the IC50: it is the midpoint of a concentration-inhibition curve. For `CC[C@H](C)[C@@H]1NC(=O)[C@@H]2CSSC[C@@H]3NC(=O)[C@H](Cc4ccccc4)NC(=O)[C@@H]4CCCN4C(=O)[C@H](CCC(N)=O)NC(=O)[C@H](CC(N)=O)NC(=O)[C@H](CC(C)C)NC(=O)[C@H](Cc4c[nH]cn4)NC(=O)[C@H](Cc4ccc(O)cc4)NC(=O)[C@@H]4CSSC[C@H](NC(=O)[C@H](CC(=O)O)NC(=O)[C@H](CO)NC(=O)[C@H](CC(=O)O)NC(=O)[C@H](CCCNC(=N)N)NC(=O)[C@H](CCCNC(=N)N)NC(=O)[C@H](CSSC[C@H](NC1=O)C(=O)N[C@@H](CCCNC(=N)N)C(=O)NCC(=O)N[C@@H](CC(N)=O)C(=O)NCC(=O)N[C@@H](Cc1ccc(O)cc1)C(=O)N4)NC(=O)[C@H](CCCCN)NC(=O)[C@H](CCCCN)NC(=O)[C@H](CC(C)C)NC(=O)[C@H]([C@@H](C)CC)NC(=O)[C@H](CCCCN)NC(=O)[C@@H]1CCCN1C3=O)C(=O)N1CCC[C@H]1C(=O)NCC(=O)N[C@@H](C)C(=O)N2` [MCo-PEDF] (cyclo(ACICRGNGYCYHLNQPFCPKILKKCRRDSDCPG); disulfide 2-18, 4-25, 10-31), the IC50 is 35.22 ± 0.08 µM in the assay with HT-29, 50.16 ± 0.15 µM in the assay on HUVEC, 53.44 ± 0.14 µM in the assay on MCF-7 and 39.11 ± 0.07 µM in the assay on PC3.
As to `CC[C@H](C)[C@@H]1NC(=O)[C@@H]2CSSC[C@@H]3NC(=O)[C@H](Cc4c[nH]c5ccccc45)NC(=O)[C@H]([C@@H](C)O)NC(=O)[C@H](CCCCN)NC(=O)[C@@H](Cc4c[nH]c5ccccc45)NC(=O)[C@H](Cc4ccccc4)NC(=O)[C@H](CCCNC(=N)N)NC(=O)[C@@H]4CSSC[C@H](NC(=O)[C@H](CC(=O)O)NC(=O)[C@H](CO)NC(=O)[C@H](CC(=O)O)NC(=O)[C@H](CCCNC(=N)N)NC(=O)[C@H](CCCNC(=N)N)NC(=O)[C@H](CSSC[C@H](NC1=O)C(=O)N[C@@H](CCCNC(=N)N)C(=O)NCC(=O)N[C@@H](CC(N)=O)C(=O)NCC(=O)N[C@@H](Cc1ccc(O)cc1)C(=O)N4)NC(=O)[C@H](CCCCN)NC(=O)[C@H](CCCCN)NC(=O)[C@H](CC(C)C)NC(=O)[C@H]([C@@H](C)CC)NC(=O)[C@H](CCCCN)NC(=O)[C@@H]1CCCN1C3=O)C(=O)N1CCC[C@H]1C(=O)NCC(=O)N[C@@H](C)C(=O)N2` [MCo-SST-02] (cyclo(ACICRGNGYCRF[dW]KTWCPKILKKCRRDSDCPG); disulfide 2-17, 4-24, 10-30), the half-maximal inhibitory concentration (IC50) is 58.89 ± 0.09 µM in the assay on HT-29, over 100 µM in the assay on HUVEC, 70.61 ± 0.11 µM in the assay with MCF-7 and 83.55 ± 0.2 µM in the assay with PC3.
Turning to `CC[C@H](C)[C@@H]1NC(=O)[C@@H]2CSSC[C@@H]3NC(=O)[C@H](C(C)C)NC(=O)CNC(=O)CNC(=O)[C@H](CC(=O)O)NC(=O)[C@H](CO)NC(=O)CNC(=O)[C@H](CO)NC(=O)CNC(=O)[C@@H]4CSSC[C@H](NC(=O)[C@H](CC(=O)O)NC(=O)[C@H](CO)NC(=O)[C@H](CC(=O)O)NC(=O)[C@H](CCCNC(=N)N)NC(=O)[C@H](CCCNC(=N)N)NC(=O)[C@H](CSSC[C@H](NC1=O)C(=O)N[C@@H](CCCNC(=N)N)C(=O)NCC(=O)N[C@@H](CC(N)=O)C(=O)NCC(=O)N[C@@H](Cc1ccc(O)cc1)C(=O)N4)NC(=O)[C@H](CCCNC(=N)N)NC(=O)[C@H](CCCNC(=N)N)NC(=O)[C@H](CCCNC(=N)N)NC(=O)[C@H](CCCCN)NC(=O)[C@H](CCCNC(=N)N)NC(=O)[C@H](CCCNC(=N)N)NC3=O)C(=O)N1CCC[C@H]1C(=O)NCC(=O)N[C@@H](C)C(=O)N2` [MCo-polyR-L1] (cyclo(ACICRGNGYCGSGSDGGVCRRKRRRCRRDSDCPG); disulfide 2-19, 4-26, 10-32), the half-inhibitory concentration (IC50) in the assay on HT-29, with HUVEC, in the assay on MCF-7 and in the assay on PC3 was over 100 µM each time.
As for `CC[C@H](C)[C@@H]1NC(=O)[C@@H]2CSSC[C@@H]3NC(=O)CNC(=O)[C@H](CCCNC(=N)N)NC(=O)[C@H](CCCNC(=N)N)NC(=O)[C@H](CCCNC(=N)N)NC(=O)[C@H](CCCCN)NC(=O)[C@H](CCCNC(=N)N)NC(=O)[C@H](CCCNC(=N)N)NC(=O)CNC(=O)[C@@H]4CSSC[C@H](NC(=O)[C@H](CC(=O)O)NC(=O)[C@H](CO)NC(=O)[C@H](CC(=O)O)NC(=O)[C@H](CCCNC(=N)N)NC(=O)[C@H](CCCNC(=N)N)NC(=O)[C@H](CSSC[C@H](NC1=O)C(=O)N[C@@H](CCCNC(=N)N)C(=O)NCC(=O)N[C@@H](CC(N)=O)C(=O)NCC(=O)N[C@@H](Cc1ccc(O)cc1)C(=O)N4)NC(=O)[C@H](CCCCN)NC(=O)[C@H](CCCCN)NC(=O)[C@H](CC(C)C)NC(=O)[C@H]([C@@H](C)CC)NC(=O)[C@H](CCCCN)NC(=O)[C@@H]1CCCN1C3=O)C(=O)N1CCC[C@H]1C(=O)NCC(=O)N[C@@H](C)C(=O)N2` [MCo-polyR-L6] (cyclo(ACICRGNGYCGRRKRRRGCPKILKKCRRDSDCPG); disulfide 2-19, 4-26, 10-32), the 50% inhibitory concentration (IC50) in the assay with HT-29 is 52.89 ± 0.11 µM; in the assay on HUVEC, 34.95 ± 0.03 µM; in the assay with MCF-7, over 100 µM; with PC3, over 100 µM.
`CC[C@H](C)[C@@H]1NC(=O)[C@@H]2CSSC[C@@H]3NC(=O)[C@H](C(C)C)NC(=O)CNC(=O)CNC(=O)[C@H](CC(=O)O)NC(=O)[C@H](CO)NC(=O)CNC(=O)[C@H](CO)NC(=O)CNC(=O)[C@@H]4CSSC[C@H](NC(=O)[C@H](CC(=O)O)NC(=O)[C@H](CO)NC(=O)[C@H](CC(=O)O)NC(=O)[C@H](CCCNC(=N)N)NC(=O)[C@H](CCCNC(=N)N)NC(=O)[C@H](CSSC[C@H](NC1=O)C(=O)N[C@@H](CCCNC(=N)N)C(=O)N[C@@H](Cc1ccc(O)cc1)C(=O)N[C@H](Cc1c[nH]c5ccccc15)C(=O)N[C@@H](CCCCN)C(=O)N[C@@H](C(C)C)C(=O)N4)NC(=O)CNC(=O)[C@H](CCCNC(=N)N)NC(=O)[C@H](CCCNC(=N)N)NC(=O)[C@H](CCCNC(=N)N)NC(=O)[C@H](CCCCN)NC(=O)[C@H](CCCNC(=N)N)NC(=O)[C@H](CCCNC(=N)N)NC(=O)CNC3=O)C(=O)N1CCC[C@H]1C(=O)NCC(=O)N[C@@H](C)C(=O)N2` [MCoAA-01] (cyclo(ACICRY[dW]KVCGSGSDGGVCGRRKRRRGCRRDSDCPG); disulfide 2-19, 4-28, 10-34): the IC50 in the assay with HT-29 is 40.12 ± 0.13 µM; in the assay with HUVEC it was 10.83 ± 0.09 µM; in the assay on MCF-7, 45.01 ± 0.16 µM; in the assay with PC3, over 100 µM.
On to `CC[C@H](C)[C@@H]1NC(=O)[C@@H]2CCCN2C(=O)[C@@H]2CCCN2C(=O)[C@H]([C@@H](C)CC)NC(=O)[C@H](CO)NC(=O)[C@H](CCCCN)NC(=O)[C@H]([C@@H](C)O)NC(=O)[C@@H]2CSSC[C@H](NC1=O)C(=O)N[C@@H](Cc1ccccc1)C(=O)N1CCC[C@H]1C(=O)N[C@@H](CC(=O)O)C(=O)NCC(=O)N[C@@H](CCCNC(=N)N)C(=O)N2` [SFTI-1, sunflower trypsin inhibitor-1, reference compound], for which the IC50 in the assay on HT-29, in the assay with HUVEC, with MCF-7 and with PC3 was over 100 µM each time.
For the compound `CC[C@H](C)[C@@H]1NC(=O)[C@@H]2CCCN2C(=O)[C@@H]2CCCN2C(=O)[C@H]([C@@H](C)CC)NC(=O)[C@H](CO)NC(=O)[C@H](CCCCN)NC(=O)[C@H]([C@@H](C)O)NC(=O)[C@@H]2CSSC[C@H](NC1=O)C(=O)N[C@@H](Cc1ccc(O)cc1)C(=O)N[C@@H](Cc1c[nH]cn1)C(=O)N[C@@H](CC(C)C)C(=O)N[C@@H](CC(N)=O)C(=O)N[C@@H](CCC(N)=O)C(=O)N1CCC[C@H]1C(=O)N[C@@H](Cc1ccccc1)C(=O)N2` [SFTI-PEDF] (cyclo(CTKSIPPICYHLNQPF); disulfide 1-9), the IC50 with HT-29 was over 100 µM; with HUVEC, 27.89 ± 0.11 µM; in the assay with MCF-7 it was over 100 µM; with PC3, over 100 µM.
Regarding `CC[C@H](C)[C@@H]1NC(=O)[C@@H]2CCCN2C(=O)[C@@H]2CCCN2C(=O)[C@H]([C@@H](C)CC)NC(=O)[C@H](CO)NC(=O)[C@H](CCCCN)NC(=O)[C@H]([C@@H](C)O)NC(=O)[C@@H]2CSSC[C@H](NC1=O)C(=O)N[C@@H](Cc1ccc(O)cc1)C(=O)N[C@H](Cc1c[nH]c3ccccc13)C(=O)N[C@@H](CCCCN)C(=O)N[C@@H](C(C)C)C(=O)N2` [SFTI-SST-01] (cyclo(CTKSIPPICY[dW]KV); disulfide 1-9), the half-maximal inhibitory concentration (IC50) in the assay with HT-29 is 45.38 ± 0.03 µM; with HUVEC it was 18.32 ± 0.05 µM; in the assay with MCF-7 it was 46.07 ± 0.05 µM; with PC3, over 100 µM.
